Earlier results in US20110189689A1, “RIBOSWITCHES” (priority 2008, published 2011).

Columns and labels:
[1] = test system: TPP-specific riboswitches in bacteria and plants; conditions: via interaction with TPP-specific riboswitches in bacteria and plants
[2] = test system: E. col±165 thiM RNA riboswitch; conditions: non-phosphorylated form of the thiamine analog
S. cerevisiae = conditions: presumably by binding to enzymes

Structure (SMILES) | antibiotic effect [1] | affinity to the thiM RNA riboswitch [2] | growth rate of S. cerevisiae (S. cerevisiae)
Cc1ncc(C[n+]2cccc(CCOP(=O)(O)OP(=O)(O)O)c2C)c(N)n1 [PTPP, pyrithiamine pyrophosphate] | exert an antibiotic effect |  | 
Cc1ncc(C[n+]2csc(CCO)c2C)c(=O)[nH]1 [oxythiamine] |  | strongly reduced affinity | can reduce the growth rate
